Measurements: patent publication US20240246967A1, “AXL COMPOUNDS” (ARCUS BIOSCIENCES, INC., priority 2021, published 2024)
pIC50: −log10 of the molar value.

Columns and labels:
human TYRO3 = molecular target: T1, human TYRO3 (Homo sapiens, UniProt Q06418); test: HTRF KinEASE-TK biochemical potency assay, TYRO3; details: 1 nM TYRO3, 700 μM ATP, 800 nM TK Substrate-biotin
T1 construct: purchased Invitrogen
T1 sequence (Q06418 41-890): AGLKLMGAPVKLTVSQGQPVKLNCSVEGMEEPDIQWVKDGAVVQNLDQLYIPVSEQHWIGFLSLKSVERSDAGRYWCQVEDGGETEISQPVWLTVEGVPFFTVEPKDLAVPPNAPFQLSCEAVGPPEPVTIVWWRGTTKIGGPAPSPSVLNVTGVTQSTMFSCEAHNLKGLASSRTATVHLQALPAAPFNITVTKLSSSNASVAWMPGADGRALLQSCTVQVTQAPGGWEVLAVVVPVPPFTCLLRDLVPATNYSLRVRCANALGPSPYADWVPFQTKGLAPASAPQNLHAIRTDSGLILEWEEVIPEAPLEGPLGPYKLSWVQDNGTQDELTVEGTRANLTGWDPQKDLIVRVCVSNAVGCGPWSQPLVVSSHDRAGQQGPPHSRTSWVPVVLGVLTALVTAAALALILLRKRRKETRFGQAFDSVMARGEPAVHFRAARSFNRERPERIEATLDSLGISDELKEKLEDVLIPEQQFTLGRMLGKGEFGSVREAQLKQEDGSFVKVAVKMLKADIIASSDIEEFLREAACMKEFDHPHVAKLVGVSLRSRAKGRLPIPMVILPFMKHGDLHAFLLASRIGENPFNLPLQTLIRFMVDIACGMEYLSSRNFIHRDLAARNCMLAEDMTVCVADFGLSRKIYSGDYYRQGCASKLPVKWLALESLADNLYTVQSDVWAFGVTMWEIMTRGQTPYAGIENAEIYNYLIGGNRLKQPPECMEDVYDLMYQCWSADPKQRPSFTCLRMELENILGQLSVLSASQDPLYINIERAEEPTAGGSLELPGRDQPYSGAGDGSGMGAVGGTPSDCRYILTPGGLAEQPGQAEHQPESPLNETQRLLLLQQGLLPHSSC
Procedure: (§1) Purified recombinant human AXL, TYRO3 and MER proteins were purchased from Invitrogen™. 10 nM AXL, 2 nM TYRO3 or MER were incubated with varying concentrations of compounds in 50 mM HEPES, pH 7.4, 10 mM MgCl2, 0.01% BSA, 1 mM DTT and 2% DMSO in a total volume of 20 μl in a 384-well microplate (Corning™ #3640) at RT for 1 h. The AXL, TYRO3 and MER enzymatic reaction was initiated by transferring 10 μl of enzyme and compound mixture into 10 μl of 1.6 μM TK Substrate-biotin (HTRF® KinEASE-TK kit, Cisbio) and 1400 μM ATP pre-incubated in 50 mM HEPES, pH 7.4, 10 mM MgCl2, 0.01% BSA, 1 mM DTT in a 384-well microplate (Corning™ #3640) at RT, giving the final reaction conditions: 5 nM AXL, 1 nM TYRO3 or MER, 800 nM TK Substrate-biotin and 700 μM ATP in 50 mM HEPES, pH 7.4, 10 mM MgCl2, 0.01% BSA, 1 mM DTT and 1% DMSO with varying concentrations of compounds. Following 2 h incubation at RT, the AXL, TYRO3 and MER enzymatic reaction was stopped by transfer of 10 μl of reaction into 10 μl of detection mix (400 nM Streptavidin-XL665, 200-fold dilution TK Antibody-Cryptate and detection buffer, HTRF® KinEASE-TK kit, Cisbio) in a white 384-well microplate (Perkin Elmer, OptiPlate 384). After 1 h incubation at RT, the plate was put into a plate reader (Evision) to read at 665/620 nm (acceptor/donor) for HTRF. The value of the DMSO blank (MIN inhibition=100% activity) was used as a negative control. The positive control was established by adding 5 μl of enzyme and DMSO mixture into 10 μl of detection mix followed by addition of 5 μl of TK Substrate-biotin and ATP mixture (MAX inhibition=0% activity). To calculate the percent activity, Equation 1 was used. Ratio 665/620 is the value at a given compound concentration: […]

human MER = molecular target: T2, human MER (Homo sapiens, UniProt Q12866); test: HTRF KinEASE-TK biochemical potency assay, MER; details: 1 nM MER, 700 μM ATP, 800 nM TK Substrate-biotin
T2 construct: purchased Invitrogen
T2 sequence (Q12866 21-999): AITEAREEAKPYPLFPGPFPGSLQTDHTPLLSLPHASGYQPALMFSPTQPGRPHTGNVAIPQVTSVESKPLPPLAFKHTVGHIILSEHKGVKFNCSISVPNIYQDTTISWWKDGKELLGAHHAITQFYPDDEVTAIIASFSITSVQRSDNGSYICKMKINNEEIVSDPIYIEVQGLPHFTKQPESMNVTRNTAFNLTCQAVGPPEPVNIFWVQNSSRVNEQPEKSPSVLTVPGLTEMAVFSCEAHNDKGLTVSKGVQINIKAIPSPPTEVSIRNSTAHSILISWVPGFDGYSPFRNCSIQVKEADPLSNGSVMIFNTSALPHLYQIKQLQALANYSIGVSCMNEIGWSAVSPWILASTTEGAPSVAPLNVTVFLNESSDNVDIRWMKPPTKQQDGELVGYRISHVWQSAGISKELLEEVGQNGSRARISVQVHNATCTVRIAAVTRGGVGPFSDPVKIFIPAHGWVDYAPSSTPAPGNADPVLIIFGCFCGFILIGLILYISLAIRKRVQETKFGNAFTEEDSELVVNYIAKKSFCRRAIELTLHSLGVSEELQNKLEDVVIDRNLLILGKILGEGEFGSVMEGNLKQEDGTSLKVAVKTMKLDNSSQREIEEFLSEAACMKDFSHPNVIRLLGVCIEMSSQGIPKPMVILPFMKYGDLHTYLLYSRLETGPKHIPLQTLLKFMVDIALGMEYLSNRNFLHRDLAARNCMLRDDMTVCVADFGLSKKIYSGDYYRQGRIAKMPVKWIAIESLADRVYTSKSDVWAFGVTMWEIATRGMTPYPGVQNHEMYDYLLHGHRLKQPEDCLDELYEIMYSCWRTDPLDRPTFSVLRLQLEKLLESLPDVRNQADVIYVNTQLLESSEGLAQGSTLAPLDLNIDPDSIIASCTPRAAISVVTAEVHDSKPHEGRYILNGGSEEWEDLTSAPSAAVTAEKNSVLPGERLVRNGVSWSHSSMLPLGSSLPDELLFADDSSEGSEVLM
Procedure: as §1

| SMILES | pIC50 (human TYRO3) | pIC50 (human MER) |
| --- | --- | --- |
| C[C@@H]1CCCN1C1(C)CCc2ccc(-c3cnc4[nH]nc(-c5ccc(S(=O)(=O)C6CC6)c(F)c5)c4c3)cc2CC1 (stereo partly drawn) [Example 25, (2R)-1-(2-{3-[4-(Cyclopropanesulfonyl)-3-fluorophenyl]-1H-pyrazolo[3,4-b]pyridin-5-yl}-7-methyl-6,7,8,9-tetrahydro-5H-benzo[7]annulen-7-yl)-2-methylpyrrolidine] | > 7.00 | 6.00 to 7.00 |
| CC(C)(O)c1ccc(-c2n[nH]c3ncc(-c4ccc5c(c4)CCC(N4CCCC4)CC5)cc23)cc1Cl (centres unmarked) [Example 11, 2-(2-Chloro-4-{5-[7-(pyrrolidin-1-yl)-6,7,8,9-tetrahydro-5H-benzo[7]annulen-2-yl]-1H-pyrazolo[3,4-b]pyridin-3-yl}phenyl)propan-2-ol] | 6.00 to 7.00 | 6.00 to 7.00 |
| CC(C)(O)c1ccc(-c2n[nH]c3ncc(-c4ccc5c(n4)CCC(N4CCCC4)CC5)cc23)cc1Cl (centres unmarked) [Example 60, 2-(2-Chloro-4-{5-[7-(pyrrolidin-1-yl)-5H,6H,7H,8H,9H-cyclohepta[b]pyridin-2-yl]-1H-pyrazolo[3,4-b]pyridin-3-yl}phenyl)propan-2-ol] | 6.00 to 7.00 | 6.00 to 7.00 |
| C[C@@H]1CCCN1C1(C)CCc2ccc(-c3cnc4[nH]nc(-c5ccc(C(C)(C)O)c(Cl)c5)c4c3)cc2CC1 (stereo partly drawn) [Example 57, 2-[2-Chloro-4-(5-{7-methyl-7-[(2R)-2-methylpyrrolidin-1-yl]-6,7,8,9-tetrahydro-5H-benzo[7]annulen-2-yl}-1H-pyrazolo[3,4-b]pyridin-3-yl)phenyl]propan-2-ol] | 6.00 to 7.00 | 6.00 to 7.00 |
| C[C@H]1CCCN1C1CCc2ccc(-c3cnc4[nH]nc(-c5ccc(C(C)(C)O)c(Cl)c5)c4c3)cc2CC1 (stereo partly drawn) [Example 37, 2-(2-Chloro-4-(5-(7-((S)-2-methylpyrrolidin-1-yl)-6,7,8,9-tetrahydro-5H-benzo[7]annulen-2-yl)-1H-pyrazolo[3,4-b]pyridin-3-yl)phenyl)propan-2-ol] | 6.00 to 7.00 | 6.00 to 7.00 |
| C[C@@H]1CCCN1C1(C)CCc2ccc(-c3cnc4[nH]nc(-c5ccc(C(N)=O)cc5)c4c3)cc2CC1 (stereo partly drawn) [Example 54, 4-(5-(7-Methyl-7-((R)-2-methylpyrrolidin-1-yl)-6,7,8,9-tetrahydro-5H-benzo[7]annulen-2-yl)-1H-pyrazolo[3,4-b]pyridin-3-yl)benzamide] | > 7.00 | > 7.00 |
| C[C@@H]1CCCN1C1(C)CCc2ccc(-c3cnc4[nH]nc(-c5ccc(C(=O)N[C@@H]6CCOC6)cc5)c4c3)cc2CC1 (stereo partly drawn) [Example 99, 4-(5-{7-Methyl-7-[(2R)-2-methylpyrrolidin-1-yl]-6,7,8,9-tetrahydro-5H-benzo[7]annulen-2-yl}-1H-pyrazolo[3,4-b]pyridin-3-yl)-N-[(3R)-oxolan-3-yl]benzamide] | < 6.00 | < 6.00 |
| C[C@@H]1CCCN1[C@H]1CCc2cc(-c3cnc4[nH]nc(-c5ccc(S(=O)(=O)C6CC6)cc5)c4c3)cnc2CC1 [Example 102, (2R)-1-[(7S)-3-{3-[4-(Cyclopropanesulfonyl)phenyl]-1H-pyrazolo[3,4-b]pyridin-5-yl}-5H,6H,7H,8H,9H-cyclohepta[b]pyridin-7-yl]-2-methylpyrrolidine] | < 6.00 | < 6.00 |
| CC1(N2CCC[C@H]2CO)CCc2ccc(-c3cnc4[nH]nc(-c5ccc(S(=O)(=O)C6CC6)cc5)c4c3)cc2CC1 (stereo partly drawn) [Example 4, [(2S)-1-(2-{3-[4-(Cyclopropanesulfonyl)phenyl]-1H-pyrazolo[3,4-b]pyridin-5-yl}-7-methyl-6,7,8,9-tetrahydro-5H-benzo[7]annulen-7-yl)pyrrolidin-2-yl]methanol] | 6.00 to 7.00 | 6.00 to 7.00 |
| C[C@H]1CCCN1C1CCc2ccc(-c3cnc4[nH]nc(-c5ccc(S(=O)(=O)C6CC6)cc5)c4c3)cc2CC1 (stereo partly drawn) [Example 24, 3-(4-(Cyclopropylsulfonyl)phenyl)-5-(7-((S)-2-methylpyrrolidin-1-yl)-6,7,8,9-tetrahydro-5H-benzo[7]annulen-2-yl)-1H-pyrazolo[3,4-b]pyridine] | 6.00 to 7.00 | 6.00 to 7.00 |
